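Method: 48-hour compound exposure of cells in 96-well plates, five concentrations, linear interpolation of endpoints. At the GI50, growth is halved.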 Active and inactive are the calls of the source. Cut-off read from the data, not from the text of the source: active = GI50 up to about 1.1 µM and inactive = higher.
How the values were obtained:
Assay in all cases: NCI anticancer screen, dose series, 48 h
[1] = tested on: 786-0
[2] = tested on: BT-549
[3] = tested on: CCRF-CEM
[4] = tested on: EKVX
[5] = tested on: HCC 2998
[6] = tested on: HL-60
[7] = tested on: K562
[8] = tested on: KM12
[9] = tested on: MDA-MB-231
[10] = tested on: MDA-N
[11] = tested on: MOLT-4
[12] = tested on: Malme-3M
[13] = tested on: NCI-H226
[14] = tested on: OVCAR-5
[15] = tested on: SF-268
[16] = tested on: SF-539
[17] = tested on: SN12C
[18] = tested on: UACC-257
[19] = tested on: SNB-75

Row | Compound | GI50 [1] | GI50 [2] | GI50 [3] | GI50 [4] | GI50 [5] | GI50 [6] | GI50 [7] | GI50 [8] | GI50 [9] | GI50 [10] | GI50 [11] | GI50 [12] | GI50 [13] | GI50 [14] | GI50 [15] | GI50 [16] | GI50 [17] | GI50 [18] | GI50 [19]
1 | Cc1ccccc1NC(=O)C(=O)Cc1cnc2ccccc2n1 | > 100 µM (inactive) | > 100 µM (inactive) | 69.8 µM (inactive) | > 100 µM (inactive) | > 100 µM (inactive) | > 100 µM (inactive) | > 100 µM (inactive) | > 100 µM (inactive) | > 100 µM (inactive) | > 100 µM (inactive) | > 100 µM (inactive) | > 100 µM (inactive) | > 100 µM (inactive) | > 100 µM (inactive) | > 100 µM (inactive) | > 100 µM (inactive) | > 100 µM (inactive) | > 100 µM (inactive) | 
2 | CCN(CC)CCCC(C)NC(=O)c1cc(-c2nccn2C)nc2ccc(C)cc12 (stereo unspecified) | > 100 µM (inactive) | > 100 µM (inactive) |  | > 100 µM (inactive) | > 100 µM (inactive) | > 100 µM (inactive) |  | > 100 µM (inactive) | > 100 µM (inactive) | > 100 µM (inactive) | > 10 µM (inactive) | > 100 µM (inactive) | > 100 µM (inactive) | > 100 µM (inactive) | > 100 µM (inactive) | > 100 µM (inactive) | > 10 µM (inactive) | > 100 µM (inactive) | > 100 µM (inactive)
3 | CN(C)c1ccc(C(=NNC(=O)c2cc3ccccc3[nH]2)c2ccc(N(C)C)cc2)cc1 | 1.53 µM (inactive) | 3.69 µM (inactive) | 0.326 µM (active) | 1.85 µM (inactive) | 0.193 µM (active) | 0.26 µM (active) | 0.0792 µM (active) | 0.33 µM (active) | 0.457 µM (active) | 0.0388 µM (active) | 0.293 µM (active) |  | 35.8 µM (inactive) | 0.94 µM (active) | 0.433 µM (active) | 0.573 µM (active) | 1.35 µM (inactive) | 4.04 µM (inactive) | 0.632 µM (active)
4 | COC(=O)c1c(O)ccc2c1c1c(n2Cc2ccccc2OC)C(=O)c2ccccc2C1=O | 11.4 µM (inactive) | 13.3 µM (inactive) | 3.13 µM (inactive) | 24.5 µM (inactive) | 6.27 µM (inactive) | 2.04 µM (inactive) | 1.67 µM (inactive) | 9.75 µM (inactive) | 13.5 µM (inactive) | 13.3 µM (inactive) | 0.0393 µM (active) | 21 µM (inactive) | 15.3 µM (inactive) | 21.1 µM (inactive) | 11.6 µM (inactive) | 19.3 µM (inactive) | 10 µM (inactive) | 22.9 µM (inactive) | 
5 | COc1cc(CNc2nc3ccccc3nc2C(=O)O)cc(OC)c1OC | > 100 µM (inactive) | > 100 µM (inactive) | > 100 µM (inactive) | 64.1 µM (inactive) | > 100 µM (inactive) | > 100 µM (inactive) | > 100 µM (inactive) | > 100 µM (inactive) | > 100 µM (inactive) | > 100 µM (inactive) | > 100 µM (inactive) | > 100 µM (inactive) | > 100 µM (inactive) | > 100 µM (inactive) | > 100 µM (inactive) | > 100 µM (inactive) | 83 µM (inactive) | > 100 µM (inactive) | 76.7 µM (inactive)
6 | COc1cccc2c1C(=O)c1c(O)c3c(c(O)c1C2=O)C[C@@](O)(C(C)=O)CC3OC1CC(OC2CC(N)C(O)C(C)O2)C(O)C(C)O1 (stereo partly specified) | 32.5 µM (inactive) | 32.5 µM (inactive) | 10.5 µM (inactive) | > 100 µM (inactive) | 54.6 µM (inactive) | 10.6 µM (inactive) | 19.6 µM (inactive) | 35.8 µM (inactive) | > 64.9 µM (inactive) | 68.1 µM (inactive) | 2.58 µM (inactive) | 38.1 µM (inactive) | 51.1 µM (inactive) | > 61.2 µM (inactive) | 31.3 µM (inactive) | 25.1 µM (inactive) | 36.9 µM (inactive) | > 67.5 µM (inactive) | 22.1 µM (inactive)
7 | COc1cc2c(cc1C)NC(=O)/C2=C/c1c(Cl)[nH]c2ccccc12 | 6.21 µM (inactive) | 2.74 µM (inactive) | 3.56 µM (inactive) | 6.68 µM (inactive) | 3.89 µM (inactive) | 2.39 µM (inactive) | 3.83 µM (inactive) | 3.1 µM (inactive) | 3.95 µM (inactive) | 1.63 µM (inactive) | 4.05 µM (inactive) | 3.88 µM (inactive) |  | 7.87 µM (inactive) | 4.22 µM (inactive) | 1.3 µM (inactive) | 5.3 µM (inactive) | 10.7 µM (inactive) | 7.87 µM (inactive)
8 | O=Cc1cc2c(o1)C(=O)c1ccccc1C2=O | 1.25 µM (inactive) | 0.757 µM (active) | 2.09 µM (inactive) | 2.58 µM (inactive) | 1.88 µM (inactive) | 0.286 µM (active) | 1.46 µM (inactive) | 1.07 µM (active) | 3.07 µM (inactive) | 0.192 µM (active) | 2.06 µM (inactive) | 0.153 µM (active) | 1.07 µM (active) | 1.77 µM (inactive) | 1.55 µM (inactive) | 0.427 µM (active) | 0.279 µM (active) | 0.569 µM (active) | 0.434 µM (active)
